Data set [1] has as its system NF-κB. The data set can be described thus: NF-κB inhibitor screen: basal NF-κB-dependent luciferase expression in HEK/NF-κB cell line. The format is cell-based. The note with it: 1 uM; determined as described in Example 398; read-out: NFkB inhibition @ 1 uM. Summed up: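 Basal NF-κB-driven luciferase (six-copy element, stable HEK293 line) was read with Brite-Glo. Compound was added in 0.3% DMSO 24 h post-plating, initially at 1.0 μM and then across 10–3300 nM in six steps, in triplicate wells. Signals were expressed relative to DMSO or to the lowest concentration tested.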

Data set [2] relates to AP-1. Nature of the data set: AP-1 inhibitor screen: basal AP-1-dependent luciferase expression in HEK/AP-1 cell line. It is filed as cell-based. The note with it: AP1; 1 uM; determined as described in Example 398. The procedure, abridged: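 Compound effects on unstimulated reporter signal were tested: 1.0 μM compound (0.3% DMSO) for 48 hr on HEK cells bearing an AP-1 (TGACTAA ×3)-luciferase construct, seeded 24 hr earlier. Triplicate luminescence means were normalized to DMSO-only wells; dose-response experiments were repeated 2–4 times.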

Structures are written as SMILES. Some results are limits rather than exact numbers.

The inhibition is the drop in the measured response relative to a control, in per cent. Usually melting point stands for the temperature of the solid-liquid transition. Turning to `CNc1nc(-c2ccccc2)c(-c2nc3ccccc3c(=O)n2-c2cccc(C)c2)s1` [Example 186, 2-(2-methylamino-4-phenyl-thiazol-5-yl)-3-m-tolyl-3H-quinazolin-4-one], the melting point is 186 to 187 °C. The inhibition at 1 µM in data set [1] amounted to 23%. Besides, the inhibition at 1 µM in data set [2] was found to be 10%.
The compound `Cc1cccc(-n2c(-c3sc(NC(=O)c4ccccc4)nc3-c3ccccc3)nc3ccccc3c2=O)c1` [Example 188, N-[5-(4-Oxo-3-m-tolyl-3,4-dihydro-quinazolin-2-yl)-4-phenyl-thiazole-2-yl]benzamide] had a melting point above 275 °C. Moreover, the inhibition at 1 µM in data set [1] was 42%. Further, the inhibition at 1 µM in data set [2] turned out to be 63%.
Taken in the same sequence, the figures for `Cc1ccc(C(=O)Nc2nc(-c3ccccc3)c(-c3nc4ccccc4c(=O)n3-c3ccccc3C)s2)cc1` [Example 176, 4-Methyl-N-[5-(4-oxo-3-o-tolyl-3,4-dihydroquinazolin-2-yl)-4-phenyl-thiazol-2-yl]-benzamide] were above 275 °C, -8% and 29%.
In turn, `CC(=O)c1ccc(-n2c(-c3sc(Nc4ccccc4)nc3C)nc3ccccc3c2=O)cc1` [Example 262, 2-(4-Methyl-2-phenylamino-thiazol-5-yl)-3-(4-acetyl-phenyl)-3H-quinazolin-4-one] displayed a melting point of 271 to 273 °C. Also, the inhibition at 1 µM in data set [1] came to 15%. The inhibition at 1 µM in data set [2] turned out to be 7%.
On to `CC(=O)c1ccc(-n2c(-c3sc(NC(=O)c4ccccc4)nc3-c3ccccc3)nc3ccccc3c2=O)cc1` [Example 268, N-[5-(4-Oxo-3-(4-acetyl-phenyl)-3,4-dihydro-quinazolin-2-yl)-4-phenyl-thiazole-2-yl]benzamide], for which the melting point fell in the range of 250 to 252 °C. For the same compound, the inhibition at 1 µM in data set [1] came out at 18%. Moreover, in data set [2], the inhibition at 1 µM was 44%.
`COC(=O)Nc1nc(-c2ccccc2)c(-c2nc3ccccc3c(=O)n2-c2ccccc2Cl)s1` [Example 232, [5-(4-Oxo-3-(2-chloro-phenyl)-3,4-dihydro-quinazolin-2-yl)-4-phenyl-thiazol-2-yl]-carbamic acid methyl ester] returned a melting point above 275 °C. In addition, the inhibition at 1 µM in data set [1] was determined as 55%. In addition, in data set [2], the inhibition at 1 µM was 67%.
Taken in the same sequence, the figures for `Cc1cccc(-n2c(-c3sc(Nc4ccc(Cl)cc4)nc3C)nc3ccccc3c2=O)c1` [Example 183, 2-[2-(4-Chlorophenylamino)-4-methyl-thiazol-5-yl]-3-m-tolyl-3H-quinazolin-4-one] were 236 to 238 °C, 2% and 39%.
`CC(=O)c1ccc(-n2c(-c3sc(Nc4ccccc4)nc3-c3ccccc3)nc3ccccc3c2=O)cc1` [Example 267, 3-(4-acetyl-phenyl)-2-(4-phenyl-2-phenylamino-thiazol-5-yl)-3H-quinazolin-4-one] came in with a melting point of 223 to 225 °C. Besides, the inhibition at 1 µM in data set [1] was found to be 43%. For the same compound, the inhibition at 1 µM in data set [2] came to 19%.
Taken in the same sequence, the figures for `CNc1nc(C)c(-c2nc3ccccc3c(=O)n2-c2cccc(C)c2)s1` [Example 181, 2-(4-methyl-2-methylamino-thiazol-5-yl)-3-m-tolyl-3H-quinazolin-4-one] were above 275 °C, 10% and 20%.
Turning to `Cc1ccc(C(=O)Nc2nc(-c3ccccc3)c(-c3nc4ccccc4c(=O)n3-c3ccc(Cl)cc3)s2)cc1` [Example 254, 4-Methyl-N-[5-(4-oxo-3-(4-Chloro-phenyl)-3,4-dihydroquinazolin-2-yl)-4-phenyl-thiazol-2-yl]-benzamide], the melting point is above 275 °C. Further, in data set [1], the inhibition at 1 µM amounted to 0%. Moreover, the inhibition at 1 µM in data set [2] came out at 2%.
For the compound `COc1ccc(Nc2nc(NC(=O)Nc3ccc(F)cc3)c(-c3cc(C)c(OCC(F)(F)F)cn3)s2)cc1` [Example 367, 1-(4-Fluoro-phenyl)-3-{2-(4-methoxy-phenylamino)-5-[4-methyl-5-(2,2,2-trifluoro-ethoxy)-pyridin-2-yl]-thiazol-4-yl}-urea], the melting point is above 280 °C.
In turn, `COC(=O)Nc1nc(-c2ccccc2)c(-c2nc3ccccc3c(=O)n2-c2ccccc2C)s1` [Example 172, [5-(4-Oxo-3-o-tolyl-3,4-dihydro-quinazolin-2-yl)-4-phenyl-thiazol-2-yl]-carbamic acid methyl ester] registered a melting point above 275 °C. Moreover, the inhibition at 1 µM in data set [1] worked out at 0%. Also, the inhibition at 1 µM in data set [2] turned out to be 25%.
For the compound `Cc1nc(Nc2ccccc2)sc1-c1nc2ccccc2c(=O)n1-c1ccccc1Cl` [Example 229, 2-(4-Methyl-2-phenylamino-thiazol-5-yl)-3-(2-chloro-phenyl)-3H-quinazolin-4-one], the melting point was 228 to 229 °C. For the same compound, the inhibition at 1 µM in data set [1] stood at 6%. The inhibition at 1 µM in data set [2] worked out at 21%.
Consider `COc1cccc(-n2c(-c3cc(-c4ccccc4)c(N4CCOCC4)s3)nc3ccccc3c2=O)c1` [Example 299, 3-(3-Methoxy-phenyl)-2-(5-morpholin-4-yl-4-phenyl-thiophen-2-yl)-3H-quinazolin-4-one], for which the melting point is 269 to 272 °C.
In turn, `Cc1ccccc1-n1c(-c2sc(NC(=O)c3ccccc3)nc2-c2ccccc2)nc2ccccc2c1=O` [Example 175, N-[5-(4-Oxo-3-o-tolyl-3,4-dihydro-quinazolin-2-yl)-4-phenyl-thiazole-2-yl]benzamide] showed a melting point above 275 °C.
Compound `COc1ccc(-n2c(-c3cc(-c4ccc(Cl)cc4)c(N4CCOCC4)s3)nc3ccccc3c2=O)cc1` [Example 302, 2-[4-(4-Chloro-phenyl)-5-morpholin-4-yl-thiophene-2-yl]-3-(4-methoxy-phenyl)-3H-quinazolin-4-one] registered a melting point of 217 to 218 °C.
Same read-out and setting: as for `CCOC(=O)Nc1nc(-c2ccccc2)c(-c2nc3ccccc3c(=O)n2-c2cccc(OC)c2)s1` [Example 212, [5-(4-Oxo-3-(3-methoxyphenyl)-3,4-dihydro-quinazolin-2-yl)-4-phenyl-thiazol-2-yl]-carbamic acid ethyl ester], the figure is 204 to 205 °C.
In the case of `CNc1nc(-c2ccccc2)c(-c2nc3ccccc3c(=O)n2-c2ccc(C(C)=O)cc2)s1` [Example 266, 2-(2-Methylamino-4-phenyl-thiazol-5-yl)-3-(4-acetyl-phenyl)-3H-quinazolin-4-one], the melting point was in the range of 239 to 240 °C. In addition, the inhibition at 1 µM in data set [1] stood at 4%. The inhibition at 1 µM in data set [2] was determined as 15%.
For the compound `CC(=O)c1ccc(-n2c(-c3sc(NC(=O)c4ccc(C)cc4)nc3-c3ccccc3)nc3ccccc3c2=O)cc1` [Example 269, 4-Methyl-N-[5-(4-oxo-3-(4-acetyl-phenyl)-3,4-dihydroquinazolin-2-yl)-4-phenyl-thiazol-2-yl]-benzamide], the melting point is 266 to 267 °C. Moreover, in data set [1], the inhibition at 1 µM was 27%. For the same compound, the inhibition at 1 µM in data set [2] amounted to 1%.
For the compound `Cc1cnc(-c2cc(-c3ccccc3)c(N3CCOCC3)s2)cc1OCC(F)(F)F` [Example 41, 4-{5-[5-Methyl-4-(2,2,2-trifluoro-ethoxy)-pyridine-2-yl]-3-phenyl-thiophene-2-yl}-morpholine], the melting point was 145 to 147 °C.
The same measure, in the same setting: as for `Cc1ccc(-n2c(-c3sc(NC(=O)c4ccccc4)nc3-c3ccccc3)nc3ccccc3c2=O)cc1` [Example 197, N-[5-(4-Oxo-3-p-tolyl-3,4-dihydro-quinazolin-2-yl)-4-phenyl-thiazole-2-yl]benzamide], the figure is above 275 °C.
Consider `Cc1ccc(-n2c(-c3sc(Nc4ccccc4)nc3-c3ccccc3)nc3ccccc3c2=O)cc1` [Example 196, 3-p-Tolyl-2-(4-phenyl-2-phenylamino-thiazol-5-yl)-3H-quinazolin-4-one], for which the melting point fell in the range of 225 to 228 °C. In data set [1], the inhibition at 1 µM came out at 38%. Moreover, in data set [2], the inhibition at 1 µM came to 10%.
`Cc1ccc(C(=O)Nc2nc(-c3ccccc3)c(-c3nc4ccccc4c(=O)n3-c3ccccc3Cl)s2)cc1` [Example 236, 4-Methyl-N-[5-(4-oxo-3-(2-chloro-phenyl)-3,4-dihydroquinazolin-2-yl)-4-phenyl-thiazol-2-yl]-benzamide]: the melting point was above 275 °C.
On to `COc1cccc(-n2c(-c3sc(Nc4ccccc4)nc3C)nc3ccccc3c2=O)c1` [Example 210, 2-(4-Methyl-2-phenylamino-thiazol-5-yl)-3-(3-methoxyphenyl)-3H-quinazolin-4-one], for which the melting point is above 275 °C.
Still for that read-out and setting: the result for `CNc1nc(-c2ccccc2)c(-c2nc3ccccc3c(=O)n2-c2ccc(C)cc2)s1` [Example 195, 2-(2-Methylamino-4-phenyl-thiazol-5-yl)-3-p-tolyl-3H-quinazolin-4-one] reads 192 to 193 °C.
In the case of `COc1cccc(-n2c(-c3sc(NC(=O)c4ccccc4)nc3-c3ccccc3)nc3ccccc3c2=O)c1` [Example 214, N-[5-(4-Oxo-3-(3-methoxyphenyl)-3,4-dihydro-quinazolin-2-yl)-4-phenyl-thiazole-2-yl]benzamide], the melting point was 195 to 196 °C. Moreover, in data set [1], the inhibition at 1 µM was found to be 34%. Further, the inhibition at 1 µM in data set [2] was 30%.
Compound `COc1ccc(-n2c(-c3cc(-c4ccccc4)c(N4CCOCC4)s3)nc3ccccc3c2=O)cc1` [Example 301, 3-(4-Methoxy-phenyl)-2-(5-morpholin-4-yl-4-phenyl-thiophen-2-yl)-3H-quinazolin-4-one] returned a melting point of 164 to 165 °C.
Compound `COC(=O)Nc1nc(-c2ccccc2)c(-c2nc3ccccc3c(=O)n2-c2cccc(C)c2)s1` [Example 185, [5-(4-Oxo-3-m-tolyl-3,4-dihydro-quinazolin-2-yl)-4-phenyl-thiazol-2-yl]-carbamic acid methyl ester] gave a melting point of 268 to 269 °C.

Values taken from patent US8829014B2, “Thiazole and thiophene analogues, and their use in treating autoimmune diseases and cancers” (Board of Supervisors of Louisiana State University and …, priority 2006, dated 2014).
